US4360663A, “Steroid hormone-antitumor derivatives” (Kureha Kagaku Kogyo Kabushiki Kaisha, priority 1978, dated 1982)

Columns and labels:
[1] = test system: estrogen sensitive cells (uterus of rabbit); assay: Binding function to estrogen sensitive cells (3H-estradiol replacement, uterus of rabbit); details: 100 nM sample; smaller value = higher binding; 54-56% at 0 nM
Description: Binding function of the active ingredients to estrogen sensitive cells.
The binding function of the active ingredient to tumor cells was tested by the method described in Biochemical Experiment text Hormone (I) (Nippon Seikagaku) (Tokyo Kagakudojin page 217-252, April 25, 1977).
Estradiol labelled by tritium (^3 H) was incubated with uterus of rabbit to bind it and then, the sample was added to the system to measure the amount of free ^3 H-estradiol which was replaced by the added estradiol. The results are shown as the binding ^3 H-estradiol(%) in the cases adding […] of the sample.

[2] = test system: estrogen sensitive cells (uterus of rabbit); assay: as above; details: 10 nM sample; smaller value = higher binding; 54-56% at 0 nM
[3] = Acute toxicity (LD50), ICR-JCL female mice, Litchfield-Wilcoxon graph method; details: mouse, in vivo, one dose, in olive oil, after 7 days
Description: In the measurement of LD50, eight ICR-JCL female mice (5 week age) were used as one group to breed in a transparent polycage, and each drug was dissolved in olive oil and administrated by routes of intraperitoneal injection (i.p.), oral administration (p.o.) and subcutaneous injection (s.c.), to the mice at one dose and then, their value of LD50 by Litchfield-Wilcoxon graph method is obtained after 7 days.
(§1) The tests (1), (2), (3) for various active ingredients were carried out.

[4] = test system: human breast cancer cells having steroid hormone receptor; assay: Antitumor test (in vivo), human breast cancer cells implanted in BALB/C-nu/nu mice; details: tumors excised day 25
Description: Pieces of human breast cancer cells having steroid hormone receptor was subcutaneously implanted under the arm of mice (BALB/C-nu/nu) (5 week age) to form solid tumors. After the solid tumors were established, each dispersion or solution of the active ingredient in olive oil was administered by oral dose or intraperitoneal injection each other day for 10 times or every days for 20 times. Twenty five days from the initial administration, the tumors were excised. Efficiency of inhibition of tumor proliferation was measured from (A) each average weight of excised tumors for 10 mice (the active ingredient was administrated) and (B) each average weight of excised tumors for 10 control mice. [formula]
as §1

## 3-hydroxy-1,3,5(10)-estratriene-17β-[methyl-2-{N'-(2-chloroethyl)-N'-nitrosoureido}-2-deoxy-α-D-glucuronoyloxy]acetate [Test No. 2 (Table 17)]
[1]
  Binding 3H-estradiol: 17%
[2]
  Binding 3H-estradiol: 37%

## O=NN(CCCl)C(=O)N[C@H]1C(O)O[C@H](CO)[C@@H](O)[C@@H]1O (stereo partly drawn) [Test No. 1 (Table 18), reference compound]
[3]; ip
  LD50 at 168 h: 48 mg/kg
[3]; po
  LD50 at 168 h: 210 mg/kg
[4]; i.p., 3 mg/kg
  Inhibitory effect of tumor, efficiency: 18%
[4]; i.p., 10 mg/kg
  Inhibitory effect of tumor, efficiency: 58%
[4]; p.o., 10 mg/kg
  Inhibitory effect of tumor, efficiency: 13%
[4]; p.o., 40 mg/kg
  Inhibitory effect of tumor, efficiency: 60%

## C[C@]12CC[C@@H]3c4ccc(O)cc4CC[C@H]3[C@@H]1CC[C@@H]2OC(=O)COC(=O)[C@H]1OC(O)[C@H](NC(=O)N(CCCl)N=O)[C@@H](O)[C@@H]1O (stereo partly drawn) [Test No. 2 (Table 18), 3-hydroxy-1,3,5(10)-estratriene-17β-[2-{N'-(2-chloroethyl)-N'-nitrosoureido}-2-deoxy-D-glucuronoyloxy]acetate]
[3]; ip
  LD50 at 168 h: > 180 mg/kg
[3]; po
  LD50 at 168 h: > 1000 mg/kg
[4]; i.p., 1 mg/kg
  Inhibitory effect of tumor, efficiency: 90%
[4]; i.p., 3 mg/kg
  Inhibitory effect of tumor, efficiency: 92%
[4]; p.o., 10 mg/kg
  Inhibitory effect of tumor, efficiency: 73%
[4]; p.o., 40 mg/kg
  Inhibitory effect of tumor, efficiency: 89%

## CN(N=O)C(=O)N[C@H]1C(O)O[C@H](CO)[C@@H](O)[C@@H]1O (stereo partly drawn) [Test No. 5 (Table 18), 2-(N'--methyl-N'--nitrosoureido)-2-deoxy-D-glucopyranoside, reference compound]
[3]; ip
  LD50 at 168 h: 264 mg/kg
[3]; po
  LD50 at 168 h: > 1000 mg/kg
[4]; i.p., 10 mg/kg
  Inhibitory effect of tumor, efficiency: 20%
[4]; i.p., 50 mg/kg
  Inhibitory effect of tumor, efficiency: 63%
[4]; p.o., 10 mg/kg
  Inhibitory effect of tumor, efficiency: 69%
[4]; p.o., 40 mg/kg
  Inhibitory effect of tumor, efficiency: 86%

## O=c1[nH]cc(F)c(=O)[nH]1 [Test No. 8 (Table 17), 5-fluoro-2,4-dioxo-pyrimidine, reference compound]
[3]; ip
  LD50 at 168 h: 242 mg/kg
[3]; po
  LD50 at 168 h: 900 mg/kg
[4]; i.p., 10 mg/kg
  Inhibitory effect of tumor, efficiency: 30%
[4]; i.p., 20 mg/kg
  Inhibitory effect of tumor, efficiency: 50%
[4]; p.o., 15 mg/kg
  Inhibitory effect of tumor, efficiency: 30%
[4]; p.o., 30 mg/kg
  Inhibitory effect of tumor, efficiency: 60%

## C[C@]12CC[C@@H]3c4ccc(OC(=O)c5ccccc5)cc4CC[C@H]3[C@@H]1CC[C@@H]2OC(=O)Cn1cc(F)c(=O)[nH]c1=O [Test No. 8 (Table 18), 3-benzoyloxy-1,3,5(10)-estratriene-17β-[5-fluoro-2,4-dioxo-pyrimidin-1-yl]acetate]
[3]; ip
  LD50 at 168 h: 680 mg/kg
[3]; po
  LD50 at 168 h: > 3000 mg/kg
[4]; i.p., 15 mg/kg
  Inhibitory effect of tumor, efficiency: 83%
[4]; i.p., 30 mg/kg
  Inhibitory effect of tumor, efficiency: 90%
[4]; p.o., 15 mg/kg
  Inhibitory effect of tumor, efficiency: 70%
[4]; p.o., 30 mg/kg
  Inhibitory effect of tumor, efficiency: 81%

## CC(=O)Oc1ccc2c(c1)CC[C@@H]1[C@@H]2CC[C@]2(C)[C@@H](OC(=O)Cn3cc(F)c(=O)[nH]c3=O)CC[C@@H]12 [Test No. 9 (Table 18), 3-acetoxy-1,3,5(10)-estratriene-17β-[5-fluoro-2,4-dioxo-pyrimidin-1-yl]acetate]
[3]; ip
  LD50 at 168 h: 800 mg/kg
[3]; po
  LD50 at 168 h: > 3000 mg/kg
[4]; i.p., 15 mg/kg
  Inhibitory effect of tumor, efficiency: 84%
[4]; i.p., 30 mg/kg
  Inhibitory effect of tumor, efficiency: 93%
[4]; p.o., 15 mg/kg
  Inhibitory effect of tumor, efficiency: 72%
[4]; p.o., 30 mg/kg
  Inhibitory effect of tumor, efficiency: 87%

## CCC(=O)Oc1ccc2c(c1)CC[C@@H]1[C@@H]2CC[C@]2(C)[C@@H](OC(=O)Cn3cc(F)c(=O)[nH]c3=O)CC[C@@H]12 [Test No. 10 (Table 18), 3-propionyloxy-1,3,5(10)-estratriene-17β-[5-fluoro-2,4-dioxo-pyrimidin-1-yl]acetate]
[3]; ip
  LD50 at 168 h: 740 mg/kg
[3]; po
  LD50 at 168 h: > 3000 mg/kg
[4]; i.p., 15 mg/kg
  Inhibitory effect of tumor, efficiency: 81%
[4]; i.p., 30 mg/kg
  Inhibitory effect of tumor, efficiency: 91%
[4]; p.o., 15 mg/kg
  Inhibitory effect of tumor, efficiency: 72%
[4]; p.o., 30 mg/kg
  Inhibitory effect of tumor, efficiency: 83%

## CN(Cc1cnc2nc(N)nc(N)c2n1)c1ccc(C(=O)N[C@@H](CCC(=O)O)C(=O)O)cc1 [Test No. 12 (Table 18), 4-amino-N^10 --methylpteroyl glutamate, reference compound]
[3]; ip
  LD50 at 168 h: 94 mg/kg
[3]; po
  LD50 at 168 h: 230 mg/kg
[4]; i.p., 5 mg/kg
  Inhibitory effect of tumor, efficiency: 48%
[4]; i.p., 20 mg/kg
  Inhibitory effect of tumor, efficiency: 65%
[4]; p.o., 10 mg/kg
  Inhibitory effect of tumor, efficiency: 31%
[4]; p.o., 50 mg/kg
  Inhibitory effect of tumor, efficiency: 42%

## COc1cccc2c1C(=O)c1c(O)c3c(c(O)c1C2=O)C[C@@](O)(C(=O)CO)C[C@@H]3O[C@H]1C[C@H](N)[C@H](O)[C@H](C)O1 [Test No. 13 (Table 18), 3-glycoloyl-1,2,3,4,6,11-hexahydro-3,5,12-trihydroxy-10-methoxy-6,11-dioxo-1-naphthacenyl-3'-amino-2',3',6'-trideoxy-α-L-lyxo-hexapyranoside, reference compound]
[3]; po
  LD50 at 168 h: 730 mg/kg
[4]; i.p., 10 mg/kg
  Inhibitory effect of tumor, efficiency: 20%
[4]; p.o., 10 mg/kg
  Inhibitory effect of tumor, efficiency: 20%

## COc1cccc2c1C(=O)c1c(O)c3c(c(O)c1C2=O)C[C@@](O)(C(=O)CO)C[C@@H]3O[C@H]1C[C@H](NCC(=O)O[C@H]2CC[C@H]3[C@@H]4CCc5cc(O)ccc5[C@H]4CC[C@]23C)[C@H](O)[C@H](C)O1 [Test No. 14 (Table 18), 3-glycoloyl-1,2,3,4,6,11-hexahydro-3,5,12-trihydroxy-10-methoxy-6,11-dioxo-1-naphthacenyl-3'-[3-hydroxy-1,3,5(10)-estratriene-17β-oxycarbonylmethyl]amino-2',3',6'-trideoxy-α-L-lyxo-hexapyranoside]
[3]; po
  LD50 at 168 h: > 3000 mg/kg
[4]; p.o., 10 mg/kg
  Inhibitory effect of tumor, efficiency: 63%
[4]; p.o., 50 mg/kg
  Inhibitory effect of tumor, efficiency: 71%

## COc1cccc2c1C(=O)c1c(O)c3c(c(O)c1C2=O)C[C@@](O)(C(=O)CO)C[C@@H]3O[C@H]1C[C@H](NCC(=O)O[C@H]2CC[C@H]3[C@@H]4CCc5cc(OC(C)=O)ccc5[C@H]4CC[C@]23C)[C@H](O)[C@H](C)O1 [Test No. 15 (Table 18), 3-glycoloyl-1,2,3,4,6,11-hexahydro-3,5,12-trihydroxy-10-methoxy-6,11-dioxo-1-naphthacenyl-3'-[3-acetoxy-1,3,5(10)-estratriene-17β-oxycarbonylmethyl]amino-2',3',6'-trideoxy-α-L-lyxo-hexapyranoside]
[3]; po
  LD50 at 168 h: > 3000 mg/kg
[4]; p.o., 10 mg/kg
  Inhibitory effect of tumor, efficiency: 53%
[4]; p.o., 50 mg/kg
  Inhibitory effect of tumor, efficiency: 79%

## CCC(=O)Oc1ccc2c(c1)CC[C@@H]1[C@@H]2CC[C@]2(C)[C@@H](OC(=O)CN[C@H]3C[C@H](O[C@H]4C[C@](O)(C(=O)CO)Cc5c(O)c6c(c(O)c54)C(=O)c4c(OC)cccc4C6=O)O[C@@H](C)[C@H]3O)CC[C@@H]12 [compound 16]
[3]; po
  LD50 at 168 h: > 3000 mg/kg
[4]; p.o., 10 mg/kg
  Inhibitory effect of tumor, efficiency: 69%
[4]; p.o., 50 mg/kg
  Inhibitory effect of tumor, efficiency: 83%

## COc1cccc2c1C(=O)c1c(O)c3c(c(O)c1C2=O)C[C@@](O)(C(=O)CO)C[C@@H]3O[C@H]1C[C@H](NCC(=O)O[C@H]2CC[C@H]3[C@@H]4CCc5cc(OC(=O)c6ccccc6)ccc5[C@H]4CC[C@]23C)[C@H](O)[C@H](C)O1 [compound 17]
[3]; po
  LD50 at 168 h: > 3000 mg/kg
[4]; p.o., 10 mg/kg
  Inhibitory effect of tumor, efficiency: 70%
[4]; p.o., 50 mg/kg
  Inhibitory effect of tumor, efficiency: 79%

## COc1cccc2c1C(=O)c1c(O)c3c(c(O)c1C2=O)C[C@@](O)(C(C)=O)C[C@@H]3O[C@H]1C[C@H](N)[C@H](O)[C@H](C)O1 [compound 18]
[3]; ip
  LD50 at 168 h: 5 mg/kg
[3]; po
  LD50 at 168 h: 20 mg/kg
[4]; i.p., 0.5 mg/kg
  Inhibitory effect of tumor, efficiency: 47%
[4]; i.p., 1 mg/kg
  Inhibitory effect of tumor, efficiency: 78%
[4]; p.o., 1 mg/kg
  Inhibitory effect of tumor, efficiency: 59%

## COc1cccc2c1C(=O)c1c(O)c3c(c(O)c1C2=O)C[C@@](O)(C(C)=O)C[C@@H]3O[C@H]1C[C@H](NCC(=O)O[C@H]2CC[C@H]3[C@@H]4CCc5cc(O)ccc5[C@H]4CC[C@]23C)[C@H](O)[C@H](C)O1 [compound 19]
[3]; ip
  LD50 at 168 h: > 15 mg/kg
[3]; po
  LD50 at 168 h: > 2000 mg/kg
[4]; i.p., 0.1 mg/kg
  Inhibitory effect of tumor, efficiency: 90%
[4]; i.p., 0.5 mg/kg
  Inhibitory effect of tumor, efficiency: 99%
[4]; p.o., 1 mg/kg
  Inhibitory effect of tumor, efficiency: 72%
[4]; p.o., 5 mg/kg
  Inhibitory effect of tumor, efficiency: 85%

## C[C@]12CC[C@@H]3c4ccc(OC(=O)c5ccccc5)cc4CC[C@H]3[C@@H]1CC[C@@H]2OC(=O)COCCNc1nc(N2CC2)nc(N2CC2)n1 [compound 20]
[3]; ip
  LD50 at 168 h: > 15 mg/kg
[3]; po
  LD50 at 168 h: > 2000 mg/kg
[4]; i.p., 0.1 mg/kg
  Inhibitory effect of tumor, efficiency: 74%
[4]; p.o., 1 mg/kg
  Inhibitory effect of tumor, efficiency: 78%
[4]; p.o., 5 mg/kg
  Inhibitory effect of tumor, efficiency: 87%

## N[C@@H](Cc1ccc(N(CCCl)CCCl)cc1)C(=O)O [compound 21]
[3]; ip
  LD50 at 168 h: 6.2 mg/kg
[3]; po
  LD50 at 168 h: 15.9 mg/kg
[4]; i.p., 0.1 mg/kg
  Inhibitory effect of tumor, efficiency: 51%
[4]; i.p., 0.5 mg/kg
  Inhibitory effect of tumor, efficiency: 57%
[4]; p.o., 1 mg/kg
  Inhibitory effect of tumor, efficiency: 61%
[4]; p.o., 3 mg/kg
  Inhibitory effect of tumor, efficiency: 72%
